A short description of data set [1]: Cytotoxicity assay (intracellular ATP levels) in Huh5-2 replicon cells. The class given is cell-based. To be noted: human, Huh5-2 cells, read-out: HCV Replicon 1b CC50. How it is done: All synthesized compounds were tested against HCV genotype 1b Con-1 subgenomic replicon in the Huh-5-2 stable cell line. Specifically, their activity against viral replication was estimated by measuring firefly luciferase, which is co-expressed by the bicistronic replicon, and their half-maximal effective concentrations (EC50) were determined. In parallel, the half-maximal cytotoxic concentrations (CC50) of the compounds were estimated, and their selective indexes (SI50: CC50/ EC50) were calculated. All novel synthesized compounds were active against HCV 1b with EC50 < 1 µM except for compound 4b (Table 3).
(§1) Intracellular ATP levels were measured to determine the cytotoxicity of the compounds in the treated cells. In 96-well plates, 10^4 cells per well were seeded, incubated with serial dilutions of the compounds or DMSO as a control for 72 h at 37 °C (5% CO2) and lysed for ATP measurement. ATP levels were measured using the ViaLight HS BioAssay kit (Lonza, Basel, Switzerland) in a GloMax 20/20 single-tube luminometer (Promega) for 1 s, according to the manufacturer’s protocol. Values were normalized to total protein amounts and used to determine the compound concentration causing 50% cell death (CC50). Nonlinear regression analysis was performed using Prism 5.0 software (GraphPad Software Inc., San Diego, CA, USA).

Data set [2] is described as follows: Cytotoxicity assay (intracellular ATP levels), Table 4 Gt1a. The format is cell-based. As to conditions: human, Huh7-Lunet cells, HCV 1a (H77) full length. How it is done: as §1
Data set [3] in a line: Phase I and phase II metabolic stability in human liver S9 fractions. The class given is in vitro ADME. To be noted: LC-MS/MS, read-out: half-life time (t½). The procedure: This was done using human liver S9 fractions, following the previously reported protocol. A number of samples were taken at defined time points, and using LC-MS/MS, the remaining percentage of the parent compound was determined.

Data set [4] relates to subgenomic replicon of HCV GT 2a (strain JFH1). Kind of data set: Anti-HCV luciferase assay, genotype 2a replicon in Huh7-JFH1 cells. The format is cell-based, Hepatitis C virus. To be noted: for EC50: Huh7-JFH1 cells. How it is done: Specifically, we determined the activity of 10a against viral replication by measuring luciferase activity in Huh7-JFH1, Huh7.5-3a, and Huh7.5-4a stable cell lines containing subgenomic replicons of HCV GT 2a (strain JFH1), GT 3a (strain S52) and GT 4a (strain ED43), respectively. In addition, the activity of 10a was determined in Huh7-Lunet cells electroporated with the in vitro transcribed full-length reporter viral RNA of HCV genotype 1a (strain H77S.3).
Huh5-2 [65] and Huh7-JFH1 [66] stable cell lines harbor the subgenomic HCV reporter replicon I389luc-ubi-neo/NS3-3′/Con1/5.1 (genotype 1b; strain Con1) and I389luc-ubi-neo/NS3-3′_dg_JFH1 (genotype 2a, JFH1 strain), respectively (kindly provided by R. Bartenschlager, Heidelberg University, Heidelberg, Germany). Huh7.5-3a and Huh7.5-4a stable cell lines harbor the subgenomic HCV reporter replicon S52-SG (Feo) (AII) (genotype 3a; S52 strain) and ED43-SG (Feo) (VYG) (genotype 4a; ED43 strain), respectively (viral constructs kindly provided by C.M. Rice, Rockefeller University, New York, NY, USA). […]
(§2) The anti-HCV assay in replicon cells was performed by seeding 1 × 10^4 cells per well in a 96-well plate. […] Cells were lysed after 72 h, and F-Luc activity was measured. […] At 72 h post-treatment, cell supernatants were collected, and G-Luc activity was measured. In addition, the cells were lysed for total protein quantification.
(§3) Relative luminescence units (RLU) were expressed as a percentage of the respective units derived from DMSO-treated cells (control). […]
(§4) The F-Luc activity was measured using the Luciferase Assay System (Promega, Madison, WI, USA), as recommended by the manufacturer. The G-Luc activity was measured using 12 μM coelenterazine (Promega) in assay buffer (50 mM potassium phosphate, pH 7.4, 500 mM NaCl, 1 mM EDTA). […] The F-Luc activity was normalized to the total protein amount determined using the Bradford assay reagent (Pierce, Waltham, MA, USA).
(In general: A replicon is a self-replicating genome or part of one, used to study replication in cells.)

The test system of data set [5] is subgenomic replicon of HCV GT 4a (strain ED43). The data set can be described thus: Anti-HCV luciferase assay, genotype 4a replicon in Huh7.5-4a cells. The format is cell-based, Hepatitis C virus. The procedure: Specifically, we determined the activity of 10a against viral replication by measuring luciferase activity in Huh7-JFH1, Huh7.5-3a, and Huh7.5-4a stable cell lines containing subgenomic replicons of HCV GT 2a (strain JFH1), GT 3a (strain S52) and GT 4a (strain ED43), respectively. In addition, the activity of 10a was determined in Huh7-Lunet cells electroporated with the in vitro transcribed full-length reporter viral RNA of HCV genotype 1a (strain H77S.3). […]
as §2, §3, §4

Here are results for one compound from PMC9146377, “Design and Synthesis of Novel Bis-Imidazolyl Phenyl Butadiyne Derivatives as HCV NS5A Inhibitors” (Pharmaceuticals, 2022).

Where two headings read alike, the source gives them in different places.

`COC(=O)N[C@@H](C(=O)N1CCC[C@H]1c1ncc(-c2cccc(C#CC#Cc3cccc(-c4cnc([C@@H]5CCCN5C(=O)[C@H](NC(=O)OC)c5ccccc5)[nH]4)c3)c2)[nH]1)c1ccccc1` [Compound 10a, Dimethyl ((1R,1′R)-((2S,2′S)-((buta-1,3-diyne-1,4-diylbis(3,1-phenylene))bis(1H-imidazole-5,2-diyl))bis(pyrrolidine-2,1-diyl))bis(2-oxo-1-phenylethane-2,1-diyl))dicarbamate] showed a melting point of 126 to 128 °C. In addition, the CC50 at 72 h in data set [1] was more than 100000 nM. The CC50 at 72 h in data set [2] was more than 100000 nM. For the same compound, in data set [3], the half-life is more than 2 h. For the same compound, in data set [4], the “Gt2a SI” value is reported as more than 3567.61. In data set [4] (Hepatitis C virus, GT2A), the response was half-maximal at 28 nM (EC50). The EC50 in data set [4] (listed as Comp. 10a, read-out: Gt2a EC50) is 28 nM. Also, the “Gt4a SI” value in data set [5] (ED43 replicon) was more than 1537.52. Further, the EC50 in data set [5] (Hepatitis C virus, GT4A, read-out: Gt4a EC50) turned out to be 65 nM.

As usually defined, the CC50 is the concentration giving 50% cytotoxicity. The half-life is the time in which the quantity being followed falls by half. By EC50 is commonly meant the concentration needed to bring the measured effect to its halfway point. By melting point is commonly meant the temperature of the solid-liquid transition.
